How the values were obtained:
[1] = Critical micelle concentration from pyrene fluorescence; assay type: physicochemical; conditions: pyrene 100 μM
Description: Critical micelle concentration (CMC) value of the trCLN3-L4 motif was further confirmed by internalizing pyrene into the hydrophobic-lipid core of the micellar aggregate followed by measuring the fluorescence of pyrene-loaded trCLN3-L4 nanoconstructs at different concentrations. For this experiment a fixed amount of pyrene in acetone was transferred to an empty tube and acetone was allowed to evaporate in the dark at 45° C. for 30 min using an Eppendorf concentrator. trCLN3-L4 solutions in the concentration range between 0.0005-0.5 mg/ml were then added to yield a final pyrene concentration fixed at 100 μM for all reactions (Table 3). The solutions were incubated at 90° C. for 10 minutes in the dark and slowly cooled down to room temperature overnight at a rate of 1° C./10 min in order to internalize pyrene into the hydrophobic lipid core. The pyrene-loaded trCLN3-L4 nanoconstructs were transferred into a 384-multi well plate and the fluorescence emission spectrum of each well was recorded at room temperature by using an excitation wave length of 339 nm in an EnSpire® Multimode Plate Reader (PerkinElmer).
In close proximity, two pyrene molecules form an excimer that emits fluorescence at a longer wavelength compared to the monomer emission. The formed excimer is a dimeric complex where one molecule exists in an excited state and the other molecule in a ground state. Monomer emission of pyrene occurs within a range of 360-400 nm whereas the excimer emission is obtained within the wavelength limit of 465-500 nm. The critical micelle concentration was determined by the distinguishable pyrene excimer fluorescence of the corresponding DNA concentration. See G. Uddin G et al., Am. J. Biochem. Mol. Biol. 2013, 3, 175-181; which reference is incorporated herein in its entirety.

[2] = Serum stability in PBS-buffered fetal calf serum (PAGE of 32P-labeled aptamer); assay type: in vitro ADME; conditions: 10% PBS-buffered FCS, 37° C., 0 to 72 h
Description: (§1) Serum stabilities of trCLN3, its two point mutant non-binding variant trCLN3.mut and their corresponding lipid-functionalized derivatives trCLN3-L4 and trCLN3.mut-L4 were investigated in fetal calf serum (FCS) and human blood serum. For this purpose, the aptamer motifs were labeled at their 5′-end with ^32P to form radiolabeled oligonucleotides. The degradation tests of all the aptamer motifs were performed for 60-72 h at 37°° C. 6 pmol (12 μl of 0.5 μM) of the radio-labeled aptamer (5′-end-labeled with γ-^32P) was incubated in a volume of 300 μl freshly thawed PBS-buffered FCS or human blood serum (270 μl serum+30 μl 10×PBS). For each measurement, 10 μl of the samples were removed, mixed with 90 μl of gel loading buffer (80% formamide+5 mM EDTA+0.01% SDS) and subsequently stored at −20° C. Aliquots of samples were taken after indicated time intervals of 0, 0.3, 1.5, 3, 6, 24, 48, 60 and 72h respectively. The serum stability of the aptamer in FCS or in HBS at different time intervals were analyzed on a denaturing PAGE by loading 10 μl of each sample onto a 10% TAE-Urea gel and running the gels for 90 minutes at 350 V. Gels were wrapped in clingfilm and exposed to a phosphorimager screen in a closed cassette over a period of 12 h and finally the residual intact aptamer bands were analyzed by scanning the screen in a phosphorimage-scanner (FujiFilm FLA 3000). Intensities of the residual intact aptamer bands were calculated applying AIDA image analyzer software program. Serums half-lives of the selected aptamers were determined by using a half-life curve-fitting data analysis program (GraphPad Prism).

[3] = Serum stability in PBS-buffered human blood serum (PAGE of 32P-labeled aptamer); assay type: in vitro ADME; conditions: 10% PBS-buffered HBS, 37° C., 0 to 72 h
Description: as §1

For “trCLN3-L4: trCLN3 aptamer with four C12-lipid-modified dU residues at the 5′-end; self-assembles into micellar nanoconstructs (TGGATGGTAGCTCGGTCGGGGTGGGTGGGTTGGCAAGTCT; four 5' C12-lipid-modified dU residues, chemistry not fully specified)”, the I475/I373 ([1]; trCLN3-L4 0.0005 mg/mL (0.035 μM)) was 0.20, the I475/I373 ([1]; trCLN3-L4 0.001 mg/mL (0.07 μM)) was 0.23 and the I475/I373 ([1]; trCLN3-L4 0.0025 mg/mL (0.175 μM)) was 0.72. The I475/I373 ([1]; trCLN3-L4 0.005 mg/mL (0.35 μM)) was 1.98, the I475/I373 ([1]; trCLN3-L4 0.01 mg/mL (0.7 μM)) was 1.57 and the I475/I373 ([1]; trCLN3-L4 0.025 mg/mL (1.75 μM)) was 2.49. For the same substance, the I475/I373 ([1]; trCLN3-L4 0.05 mg/mL (3.5 μM)) was 4.69, the I475/I373 ([1]; trCLN3-L4 0.1 mg/mL (7.0 μM)) was 5.13 and the I475/I373 ([1]; trCLN3-L4 0.25 mg/mL (17.4 μM)) was 6.90. The I475/I373 ([1]; trCLN3-L4 0.5 mg/mL (35 μM)) was 7.83, the “serum half-life (t1/2)” value [2] was “no significant degradation even up to 72 h” and the “serum half-life (t1/2)” value [3] was “no significant degradation even up to 72 h”.
